{
  "source": "patent US9248162B2",
  "about": "“Factor H for treatment of rheumatoid arthritis” (Baxter International Inc., priority 2013, dated 2016)",
  "assay_type_in_all_cases": "in vivo, Balb C mice",
  "key": {"[1]": {"test_system": "collagen antibody-induced arthritis", "test": "Mouse CAIA: ankle histology scores (H & E)", "set-up": "key: 0: normal; 1: minimal infiltration of inflammatory cells in periarticular tissue; 2: mild infiltration; 3: moderate infiltration with moderate edema; 4: marked infiltration with marked edema; 5: severe infiltration with severe edema", "conditions": "individual animal, score 0-5, endpoint day 22, listed as Group 3", "procedure": "(§1) Balb C mice (n=10 per cohort) were used to determine the efficacy of Factor H (FH) during […]. The mice were treated with ArthritoMAb (anti-collagen) antibody cocktail (2 mg, i.v.) on day 1, followed 7 days later with an injection of LPS (50 μg, i.p.). On day 8, hind paw volumes were measured for each animal and distributed to various treatment groups.\n(§2) Dosing with the different agents was started on day 8 as described in Table 3.\n(§3) Hind paw volumes were measured on day 8, 11, 12, 13, 15, 19 and 22 (endpoint). The age at start date was 7 to 9 weeks. Body weights were measured bi-weekly to the endpoint (Table 4). At the endpoint, tissue samples were processed for histology and submitted to a pathologist for independent analysis. Sampling 1 was performed at the endpoint. The hind limbs were preserved in 10% formalin. Sampling 2 was performed at the endpoint for group 4 animals. Blood was collected by terminal cardiac puncture. The blood was processed for anti-coagulant. The kidneys were additionally preserved in formalin and followed with 70% EtOH. Samples were scored for inflammation, pannus (granulation tissue), cartilage damage, bone resorption and exostosis (Table 5)."}, "[2]": {"test_system": "collagen antibody-induced arthritis", "test": "Mouse CAIA: ankle histology scores (H & E)", "set-up": "key: 0: normal; 1: minimal to mild loss of staining density with no obvious chondrocyte loss or collagen disruption; 2: mild loss of staining density with focal mild (superficial) chondrocyte loss and/or collagen disruption; 3: moderate loss of staining density with multifocal moderate (depth to middle zone) chondrocyte loss and/or collagen disruption; 4: marked loss of staining density with multifocal marked (depth to deep zone) chondrocyte loss and/or collagen disruption; 5: severe diffuse loss of staining density with multifocal severe (depth to tide mark) chondrocyte loss and/or collagen disruption", "conditions": "individual animal, score 0-5, endpoint day 22, listed as Group 3", "procedure": "as §1, §2, §3"}, "[3]": {"test_system": "collagen antibody-induced arthritis", "test": "Mouse CAIA: ankle histology scores (H & E)", "set-up": "key: 0: normal; 1: minimal; 2: mild; 3: moderate; 4: marked; 5: severe", "conditions": "individual animal, score 0-5, endpoint day 22, listed as Group 3", "procedure": "as §1, §2, §3"}, "[4]": {"test_system": "collagen antibody-induced arthritis", "test": "Mouse CAIA: clinical score", "set-up": "key to Clinical Score, Summary (significance): ns: = not significant; *: = P < 0.05; **: = P < 0.01; ***: = P < 0.001", "procedure": "The mice were treated with ArthritoMAb (anti-collagen) antibody cocktail (2 mg, i.v.) on day 1, followed 7 days later with an injection of LPS (50 μg, i.p.). On day 8, hind paw volumes were measured for each animal and distributed to various treatment groups.\nFactor H was formulated in 20 mM Citrate, 150 mM NaCl, pH=6. […] Ethanercept was formulated as Enbrel™ in saline. Vehicle was formulated in 20 mM Citrate, 150 mM NaCl, pH=6. […] The dosing volume for Factor H and BX12 was 25 mL/kg (0.500 mL/20 g mouse) and adjusted accordingly for body weight.\nas §2"}, "[5]": {"test_system": "collagen antibody-induced arthritis", "test": "Mouse CAIA: ankle histology scores (H & E)", "set-up": "key: 0: normal; 1: minimal infiltration of pannus in cartilage and subchondral bone; 2: mild infiltration; 3: moderate infiltration; 4: marked infiltration; 5: severe infiltration", "conditions": "individual animal, score 0-5, endpoint day 22, listed as Group 3", "procedure": "as §1, §2, §3"}, "[6]": {"test_system": "collagen antibody-induced arthritis", "test": "Mouse CAIA: ankle histology scores (H & E)", "set-up": "key to Score From H & E: Inflammation: 0: normal; 1: minimal infiltration of inflammatory cells in periarticular tissue; 2: mild infiltration; 3: moderate infiltration with moderate edema; 4: marked infiltration with marked edema; 5: severe infiltration with severe edema; key to Exostosis, Summary (significance) / Composite, Summary (significance) / Pannus, Summary (significance) / Cartilage, Summary (significance) / Inflammation, Summary (significance): ns: = not significant; *: = P < 0.05; **: = P < 0.01; ***: = P < 0.001; Composite Biohistopathology Score, group value / Composite Biohistopathology Score: scale not given here", "procedure": "as §1, §2, §3"}, "[7]": {"conditions": "Vehicle vs agent, Dunn's Multiple Comparison Test"}, "[8]": {"conditions": "ankle, group mean ± spread, 10 animals, score 0-5"}, "[9]": {"conditions": "histopathology score, graded 1-5, hind limbs at endpoint, group value"}},
  "note": "“And” between values parts separate entries of the source, which are not always exact repeats. Equal values may be shown once.",
  "data": [
    {"substance": "Etanercept", "values": [
      {"measurement": "Score From H & E: Bone Resorption", "setting": "[1]", "value": 0},
      {"measurement": "Score From H & E: Cartilage Damage", "setting": "[1]", "value": 0},
      {"measurement": "Score From H & E: Pannus", "setting": "[1]", "value": "2 (3×) and 0 (5×)"},
      {"measurement": "Score From H & E: Periosteal/Exostotic Changes", "setting": "[1]", "value": 0},
      {"measurement": "Score From H & E: Cartilage Damage", "setting": "[2]", "value": "1 (3×) and 2 (2×)"},
      {"measurement": "Score From H & E: Bone Resorption", "setting": "[3]", "value": "1 and 3 (3×)"},
      {"measurement": "Score From H & E: Periosteal/Exostotic Changes", "setting": "[3]", "value": "4 (2×) and 3 (2×)"},
      {"measurement": "Clinical Score, Difference in rank sum", "setting": "[4]; [7]", "value": 3.55},
      {"measurement": "Clinical Score, Summary (significance)", "setting": "[4]; [7]", "value": "ns"},
      {"measurement": "Max Clin Score, Mean", "setting": "[4]; group mean, n=10", "value": 39.60},
      {"measurement": "Clinical Score, Day of Study 8, Mean", "setting": "[4]; group mean, n=10, day 8 (start of dosing)", "value": 5.50},
      {"measurement": "Clinical Score, Day of Study 11, Mean", "setting": "[4]; group mean, n=10, day 11", "value": 19.60},
      {"measurement": "Clinical Score, Day of Study 12, Mean", "setting": "[4]; group mean, n=10, day 12", "value": 37.10},
      {"measurement": "Clinical Score, Day of Study 13, Mean", "setting": "[4]; group mean, n=10, day 13", "value": 35.50},
      {"measurement": "Clinical Score, Day of Study 16, Mean", "setting": "[4]; group mean, n=10, day 16 (Jul. 1, 2011)", "value": 31.50},
      {"measurement": "Clinical Score, Day of Study 19, Mean", "setting": "[4]; group mean, n=10, day 19", "value": 28.40},
      {"measurement": "Clinical Score, Day of Study 22, Mean", "setting": "[4]; group mean, n=10, day 22 (endpoint)", "value": 25.70},
      {"measurement": "Day (of Max Clin Score)", "setting": "[4]; individual animal, day of study", "value": "12 (8×) and 22 and 16"},
      {"measurement": "Max Clin Score", "setting": "[4]; individual animal, maximum over days 8 to 22", "value": "32 and 50 (2×) and 45 and 46 and 35 and 30 and 20 and 34 and 52"},
      {"measurement": "Clinical Score, Day of Study 8", "setting": "[4]; individual animal, score 0-60, day 8 (start of dosing)", "value": "0 (5×) and 15 and 10 (4×)"},
      {"measurement": "Clinical Score, Day of Study 11", "setting": "[4]; individual animal, score 0-60, day 11", "value": "12 (2×) and 34 and 28 and 4 and 15 and 43 and 11 and 10 and 27"},
      {"measurement": "Clinical Score, Day of Study 12", "setting": "[4]; individual animal, score 0-60, day 12", "value": "32 and 50 (2×) and 45 and 27 and 35 and 26 and 20 and 34 and 52"},
      {"measurement": "Clinical Score, Day of Study 13", "setting": "[4]; individual animal, score 0-60, day 13", "value": "32 and 50 and 45 (2×) and 21 and 35 and 30 and 15 and 34 and 48"},
      {"measurement": "Clinical Score, Day of Study 16", "setting": "[4]; individual animal, score 0-60, day 16 (Jul. 1, 2011)", "value": "32 and 49 and 21 and 48 and 25 and 45 and 15 and 10 and 24 and 46"},
      {"measurement": "Clinical Score, Day of Study 19", "setting": "[4]; individual animal, score 0-60, day 19", "value": "32 and 48 and 34 and 25 and 5 and 45 and 20 and 10 and 26 and 37"},
      {"measurement": "Clinical Score, Day of Study 22", "setting": "[4]; individual animal, score 0-60, day 22 (endpoint)", "value": "32 and 41 and 34 and 16 (2×) and 40 and 19 and 10 and 23 and 26"},
      {"measurement": "Day (of Max Clin Score), Mean", "setting": "[4]; listed as 'Mean', n=10, day of study", "value": 12.00},
      {"measurement": "Mean Maximum Clinical Score", "setting": "[4]; scored from 0 to 60 (15/limb), sum of 4 limbs, vehicle 45.4", "value": "39.6^ns"},
      {"measurement": "Score From H & E: Pannus", "setting": "[5]", "value": 4},
      {"measurement": "Cartilage, Difference in rank sum", "setting": "[6]; [7]", "value": "−1.5"},
      {"measurement": "Cartilage, Summary (significance)", "setting": "[6]; [7]", "value": "ns"},
      {"measurement": "Composite, Difference in rank sum", "setting": "[6]; [7]", "value": 2.1},
      {"measurement": "Composite, Summary (significance)", "setting": "[6]; [7]", "value": "ns"},
      {"measurement": "Exostosis, Difference in rank sum", "setting": "[6]; [7]", "value": 5.8},
      {"measurement": "Exostosis, Summary (significance)", "setting": "[6]; [7]", "value": "ns"},
      {"measurement": "Inflammation, Difference in rank sum", "setting": "[6]; [7]", "value": 3.6},
      {"measurement": "Inflammation, Summary (significance)", "setting": "[6]; [7]", "value": "ns"},
      {"measurement": "Pannus, Difference in rank sum", "setting": "[6]; [7]", "value": 0.3},
      {"measurement": "Pannus, Summary (significance)", "setting": "[6]; [7]", "value": "ns"},
      {"measurement": "Composite Biohistopathology Score, group value", "setting": "[6]; ankle, group mean ± spread, 10 animals", "value": "6.0 ± 2.1"},
      {"measurement": "Score From H & E: Bone Resorption, group value", "setting": "[6]; [8]", "value": "1.0 ± 0.4"},
      {"measurement": "Score From H & E: Cartilage Damage, group value", "setting": "[6]; [8]", "value": "0.7 ± 0.3"},
      {"measurement": "Score From H & E: Inflammation, group value", "setting": "[6]; [8]", "value": "1.5 ± 0.5"},
      {"measurement": "Score From H & E: Pannus, group value", "setting": "[6]; [8]", "value": "1.4 ± 0.5"},
      {"measurement": "Score From H & E: Periosteal/Exostotic Changes, group value", "setting": "[6]; [8]", "value": "1.4 ± 0.6"},
      {"measurement": "Composite Biohistopathology Score", "setting": "[6]; ankle, individual animal, endpoint day 22, listed as Group 3", "value": "11 (2×) and 0 (4×) and 16 and 15 and 1 and 4"},
      {"measurement": "Score From H & E: Inflammation", "setting": "[6]; ankle, individual animal, score 0-5, endpoint day 22, listed as Group 3", "value": "3 (4×) and 0 (4×) and 1 and 2"},
      {"measurement": "Composite Score", "setting": "[6]; histopathology composite, hind limbs at endpoint, group value", "value": "6.0 ± 2.1^ns"},
      {"measurement": "Bone Resorption", "setting": "[6]; [9]", "value": "1.0 ± 0.4^ns"},
      {"measurement": "Cartilage Damage", "setting": "[6]; [9]", "value": "0.7 ± 0.3^ns"},
      {"measurement": "Exostosis", "setting": "[6]; [9]", "value": "1.4 ± 0.6^ns"},
      {"measurement": "Inflammation", "setting": "[6]; [9]", "value": "1.5 ± 0.5^ns"},
      {"measurement": "Pannus", "setting": "[6]; [9]", "value": "1.4 ± 0.5^ns"}
    ]}
  ]
}
